Patent US20020058072A1, “Use of iodide salt as an aphrodisiac” (priority 2000, published 2002)

System: human
Assay: Oral administration to an adult human: aphrodisiac effect and increased vaginal lubrication
Type: in vivo
Conditions: 3 ml of 5M sodium iodide in water added to 20 ml lemon juice plus 1 tbsp sugar; patient
Description: The terms “aphrodisiac” or “heightened sexual desire”, for the purposes of the present invention, refer to the following physical manifestations including clitoral swelling, nipple erection, contraction of the vaginal musculature, and a general tingling sensation.
Specifically, after oral administration of an iodide salt, the subject experienced increased vaginal lubrication. The term “increased vaginal lubrication”, as used herein, refers to an increased amount of transudate present in the vagina above the amount of transudate present in the vagina above the amount of transudate present in the unstimulated state.
The syrup was administered orally to a human, weighing approximately 165 pounds. About 0.5 to 3.0 teaspoons of the hydriodic acid syrup was admixed with approximately 8 ounces of tap water and then ingested.
To 20 ml of lemon juice are added 3 ml of a 5M solution of sodium iodide in water, and 1 tbsp of sugar is added to the resultant solution.

[I-].[Na+] [sodium iodide]
reaction observed after administration (arousal, vaginal lubrication): arousal and increased vaginal lubrication
